From US12428408B2, “Fused heterocyclic mescaline derivatives” (Enveric Biosciences Canada Inc., priority 2022, dated 2025)
Where two headings read alike, the source gives them in different places.

Key:
5-HT1A receptor [1] = target: T1, 5-HT1A receptor (Homo sapiens, UniProt P08908); assay: Functional 5-HT1A receptor cAMP assay in CHO-K1/5-HT1A/Gα15 cells; assay type: cell-based; conditions: +5-HT1A cells, 4 μM forskolin, FIGS. 37B-37H
T1 construct: purchased Perkin Elmer 6110501400UA
T1 sequence (P08908 1-422): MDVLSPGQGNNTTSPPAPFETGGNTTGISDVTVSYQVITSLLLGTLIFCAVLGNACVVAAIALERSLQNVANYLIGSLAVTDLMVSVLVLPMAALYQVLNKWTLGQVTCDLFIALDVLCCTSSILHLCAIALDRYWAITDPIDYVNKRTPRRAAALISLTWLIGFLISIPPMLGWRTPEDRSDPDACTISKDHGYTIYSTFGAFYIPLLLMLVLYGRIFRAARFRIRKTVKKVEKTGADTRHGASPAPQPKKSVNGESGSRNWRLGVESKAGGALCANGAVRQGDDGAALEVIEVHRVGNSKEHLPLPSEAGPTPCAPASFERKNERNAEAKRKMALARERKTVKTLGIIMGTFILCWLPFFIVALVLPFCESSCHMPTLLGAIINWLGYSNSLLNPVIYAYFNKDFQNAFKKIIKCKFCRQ

5-HT1D (r) = target: T2, 5-HT1D (r) (Rattus norvegicus, UniProt P28565); assay: Competition assay to measure binding affinity at 5-HT1D receptor; conditions: test ligand 10 μM; [3H]serotonin 1 nM
T2 construct: host or cells: CHO cells

MT1 (ML1A) (h) = target: T3, MT1 (ML1A) (h) (Homo sapiens, UniProt P48039); assay: Competition assay to measure binding affinity at MT1 receptor; conditions: test ligand 10 μM; [125I]2-iodomelatonin 0.01 nM
T3 construct: host or cells: CHO cells

5-HT1B (h) = target: T4, 5-HT1B (h) (Homo sapiens, UniProt P28222); assay: Competition assay to measure binding affinity at 5-HT1B receptor; conditions: test ligand 10 μM; [3H]GR125743 1 nM
T4 construct: host or cells: Chem-1 (RBL) cells

NET (h) = target: T5, NET (h) (Homo sapiens, UniProt P23975); assay: Competition assay to measure binding affinity at norepinephrine transporter (NET); conditions: test ligand 10 μM; [3H]nisoxetine 1 nM
T5 construct: host or cells: CHO cells

alpha2A (h) = target: T6, alpha2A (h) (Homo sapiens, UniProt P08913); assay: Competition assay to measure binding affinity at alpha2A receptor; conditions: test ligand 10 μM; [3H]RX 821002 1 nM; read-out: α-2A, percent of control-specific binding
T6 construct: host or cells: CHO cells
T6 sequence (P08913 1-465): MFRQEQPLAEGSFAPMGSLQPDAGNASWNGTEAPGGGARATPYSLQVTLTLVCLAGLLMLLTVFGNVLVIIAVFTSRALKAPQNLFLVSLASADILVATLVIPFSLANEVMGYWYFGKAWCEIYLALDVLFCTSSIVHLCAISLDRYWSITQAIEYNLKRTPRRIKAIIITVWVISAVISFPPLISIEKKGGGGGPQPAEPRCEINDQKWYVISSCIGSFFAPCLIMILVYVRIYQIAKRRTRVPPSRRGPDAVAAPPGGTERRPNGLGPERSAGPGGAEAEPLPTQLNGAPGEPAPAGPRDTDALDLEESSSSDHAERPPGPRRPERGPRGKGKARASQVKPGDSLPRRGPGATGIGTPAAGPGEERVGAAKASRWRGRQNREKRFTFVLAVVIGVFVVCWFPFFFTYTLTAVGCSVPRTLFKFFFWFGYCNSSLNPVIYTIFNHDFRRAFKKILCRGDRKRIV

D3 (h) = target: T7, D3 (h) (Homo sapiens, UniProt P35462); assay: Competition assay to measure binding affinity at D3 receptor; conditions: test ligand 10 μM; [3H]methylspiperone […]
T7 construct: host or cells: CHO cells

D2 (h) = target: T8, D2 (h) (Homo sapiens, UniProt P14416); assay: Competition assay to measure binding affinity at D2L receptor; conditions: test ligand 10 μM; [3H]methylspiperone 0.3 nM
T8 construct: host or cells: HEK-293 cells

DAT (h) = target: T9, DAT (h) (Homo sapiens, UniProt Q01959); assay: Competition assay to measure binding affinity at dopamine transporter (DAT); conditions: test ligand 10 μM; [3H]BTCP 4 nM
T9 construct: host or cells: CHO cells

5-HT2B (h) = target: T10, 5-HT2B (h) (Homo sapiens, UniProt P41595); assay: Competition assay to measure binding affinity at 5-HT2B receptor; conditions: test ligand 10 μM; [3H]mesulergine 2 nM
T10 construct: host or cells: CHO cells

5-HT2C (h) = target: T11, 5-HT2C (h) (Homo sapiens, UniProt P28335); assay: Competition assay to measure binding affinity at 5-HT2C receptor; conditions: test ligand 10 μM; [125I](±)DOI 0.1 nM
T11 construct: host or cells: HEK-293 cells
T11 sequence (P28335 33-458): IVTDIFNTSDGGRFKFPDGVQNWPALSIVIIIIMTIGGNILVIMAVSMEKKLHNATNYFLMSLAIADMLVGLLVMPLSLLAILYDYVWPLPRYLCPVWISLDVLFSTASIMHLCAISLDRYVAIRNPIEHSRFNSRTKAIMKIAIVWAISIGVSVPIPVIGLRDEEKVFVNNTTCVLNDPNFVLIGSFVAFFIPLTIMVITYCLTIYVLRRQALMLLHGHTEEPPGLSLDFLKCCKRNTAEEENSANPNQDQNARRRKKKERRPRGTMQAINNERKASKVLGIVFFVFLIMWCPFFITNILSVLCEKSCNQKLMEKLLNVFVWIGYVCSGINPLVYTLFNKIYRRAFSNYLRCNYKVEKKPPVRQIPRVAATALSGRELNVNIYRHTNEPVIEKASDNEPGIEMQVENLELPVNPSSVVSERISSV

[2] = target: T12, human serotonin transporter (SERT) (Homo sapiens, UniProt P31645); assay: biochemical; assay type: binding
T12 construct: purchased PerkinElmer RBHSTM400UA

5-HT1A receptor [3] = target: T1, 5-HT1A receptor; assay: 5-HT1A receptor radioligand competition assay (SPA); assay type: binding
5-HT2A receptor = 5-HT2A receptor (Homo sapiens, UniProt P28223); assay: 5-HT2A receptor radioligand competition assay (SPA)
5-HT7 (h) = target: T13, 5-HT7 (h) (Homo sapiens, UniProt P34969); assay: Competition assay to measure binding affinity at 5-HT7 receptor; conditions: test ligand 10 μM; [3H]LSD 4 nM
T13 construct: host or cells: HEK-293 cells

[4] = competition with 0.5 nM 8-hydroxy-DPAT [3H], test compound 3 nM to 1 mM, read-out: 5-HT1A, Ki

T2 sequence (P28565 whole entry): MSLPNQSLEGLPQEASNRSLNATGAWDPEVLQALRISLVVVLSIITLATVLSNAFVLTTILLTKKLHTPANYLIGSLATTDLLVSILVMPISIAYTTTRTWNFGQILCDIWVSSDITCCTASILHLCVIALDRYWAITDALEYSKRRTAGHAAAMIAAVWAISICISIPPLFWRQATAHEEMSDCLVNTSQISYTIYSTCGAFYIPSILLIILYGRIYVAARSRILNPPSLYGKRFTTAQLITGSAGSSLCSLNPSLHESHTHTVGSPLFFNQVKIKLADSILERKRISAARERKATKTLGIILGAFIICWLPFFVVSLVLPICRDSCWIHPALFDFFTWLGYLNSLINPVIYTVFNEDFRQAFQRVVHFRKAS
T8 sequence (P14416 whole entry): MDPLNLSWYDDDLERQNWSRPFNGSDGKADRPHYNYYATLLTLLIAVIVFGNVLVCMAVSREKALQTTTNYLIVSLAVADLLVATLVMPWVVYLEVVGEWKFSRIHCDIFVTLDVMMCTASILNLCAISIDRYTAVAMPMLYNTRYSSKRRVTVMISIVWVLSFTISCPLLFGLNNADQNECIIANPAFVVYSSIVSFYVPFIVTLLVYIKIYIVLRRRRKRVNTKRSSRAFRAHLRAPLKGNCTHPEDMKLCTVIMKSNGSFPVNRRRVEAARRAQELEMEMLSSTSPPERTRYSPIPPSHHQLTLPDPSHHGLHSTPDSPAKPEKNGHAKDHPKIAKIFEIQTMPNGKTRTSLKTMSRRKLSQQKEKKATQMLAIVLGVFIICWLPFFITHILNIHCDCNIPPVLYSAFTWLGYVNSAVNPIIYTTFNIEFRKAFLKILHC
T12 sequence (P31645 whole entry): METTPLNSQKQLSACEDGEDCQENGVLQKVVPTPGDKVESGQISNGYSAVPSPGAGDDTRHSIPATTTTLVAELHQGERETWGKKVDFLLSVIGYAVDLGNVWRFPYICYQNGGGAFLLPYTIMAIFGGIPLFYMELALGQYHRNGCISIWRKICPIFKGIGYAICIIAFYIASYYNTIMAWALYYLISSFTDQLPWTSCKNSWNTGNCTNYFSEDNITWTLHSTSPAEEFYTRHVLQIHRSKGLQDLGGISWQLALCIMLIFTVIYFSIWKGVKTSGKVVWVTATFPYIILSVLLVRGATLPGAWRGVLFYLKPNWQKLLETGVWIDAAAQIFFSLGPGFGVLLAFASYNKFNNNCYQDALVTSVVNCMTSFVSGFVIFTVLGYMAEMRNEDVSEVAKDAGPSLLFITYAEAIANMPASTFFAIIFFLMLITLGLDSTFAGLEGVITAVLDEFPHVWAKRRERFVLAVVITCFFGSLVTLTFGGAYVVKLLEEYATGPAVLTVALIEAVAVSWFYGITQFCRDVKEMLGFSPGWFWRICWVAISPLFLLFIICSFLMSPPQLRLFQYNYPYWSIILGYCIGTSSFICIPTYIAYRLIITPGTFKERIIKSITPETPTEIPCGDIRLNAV
T9 sequence (Q01959 whole entry): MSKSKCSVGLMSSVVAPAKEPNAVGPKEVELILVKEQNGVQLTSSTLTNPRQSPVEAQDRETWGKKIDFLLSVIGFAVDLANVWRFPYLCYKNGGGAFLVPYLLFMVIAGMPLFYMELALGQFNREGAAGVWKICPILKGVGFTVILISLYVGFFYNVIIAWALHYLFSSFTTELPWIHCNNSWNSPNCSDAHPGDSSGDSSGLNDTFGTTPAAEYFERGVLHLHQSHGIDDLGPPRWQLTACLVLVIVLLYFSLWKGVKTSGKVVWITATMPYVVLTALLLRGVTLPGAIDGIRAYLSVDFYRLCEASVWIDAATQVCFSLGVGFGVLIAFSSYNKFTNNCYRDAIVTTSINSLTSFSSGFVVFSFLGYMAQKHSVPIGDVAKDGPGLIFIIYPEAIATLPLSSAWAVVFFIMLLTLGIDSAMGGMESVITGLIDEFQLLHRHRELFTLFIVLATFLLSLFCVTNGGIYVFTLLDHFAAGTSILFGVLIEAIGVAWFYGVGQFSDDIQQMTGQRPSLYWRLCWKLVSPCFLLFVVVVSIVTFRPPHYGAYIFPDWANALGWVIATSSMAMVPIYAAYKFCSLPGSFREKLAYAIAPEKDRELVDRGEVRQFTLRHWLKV
T7 sequence (P35462 whole entry): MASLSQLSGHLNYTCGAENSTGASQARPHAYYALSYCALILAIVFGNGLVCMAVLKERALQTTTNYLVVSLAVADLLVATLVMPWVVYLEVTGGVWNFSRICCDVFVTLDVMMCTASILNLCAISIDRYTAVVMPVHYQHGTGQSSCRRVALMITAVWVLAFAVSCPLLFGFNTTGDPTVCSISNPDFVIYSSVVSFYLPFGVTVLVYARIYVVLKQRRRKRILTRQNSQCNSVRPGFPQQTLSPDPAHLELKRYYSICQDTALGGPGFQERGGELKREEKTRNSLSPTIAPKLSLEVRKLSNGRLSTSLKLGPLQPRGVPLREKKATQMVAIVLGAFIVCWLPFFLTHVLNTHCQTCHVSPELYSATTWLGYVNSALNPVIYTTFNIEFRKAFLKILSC
T5 sequence (P23975 whole entry): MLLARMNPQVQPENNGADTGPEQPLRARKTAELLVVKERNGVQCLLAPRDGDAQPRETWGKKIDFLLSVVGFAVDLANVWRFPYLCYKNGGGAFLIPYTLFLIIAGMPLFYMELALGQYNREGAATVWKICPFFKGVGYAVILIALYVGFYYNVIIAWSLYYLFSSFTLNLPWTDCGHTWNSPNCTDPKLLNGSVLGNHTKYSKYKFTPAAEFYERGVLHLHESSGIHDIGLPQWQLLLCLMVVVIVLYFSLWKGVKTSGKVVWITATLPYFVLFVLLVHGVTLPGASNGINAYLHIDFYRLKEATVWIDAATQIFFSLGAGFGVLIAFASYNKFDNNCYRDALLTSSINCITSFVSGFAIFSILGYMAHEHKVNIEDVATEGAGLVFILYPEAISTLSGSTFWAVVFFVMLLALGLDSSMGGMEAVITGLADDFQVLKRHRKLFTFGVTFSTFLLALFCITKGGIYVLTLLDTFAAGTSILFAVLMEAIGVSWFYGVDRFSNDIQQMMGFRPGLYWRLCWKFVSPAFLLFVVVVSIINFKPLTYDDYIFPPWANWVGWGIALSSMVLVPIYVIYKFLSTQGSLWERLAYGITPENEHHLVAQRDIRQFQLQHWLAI
T10 sequence (P41595 whole entry): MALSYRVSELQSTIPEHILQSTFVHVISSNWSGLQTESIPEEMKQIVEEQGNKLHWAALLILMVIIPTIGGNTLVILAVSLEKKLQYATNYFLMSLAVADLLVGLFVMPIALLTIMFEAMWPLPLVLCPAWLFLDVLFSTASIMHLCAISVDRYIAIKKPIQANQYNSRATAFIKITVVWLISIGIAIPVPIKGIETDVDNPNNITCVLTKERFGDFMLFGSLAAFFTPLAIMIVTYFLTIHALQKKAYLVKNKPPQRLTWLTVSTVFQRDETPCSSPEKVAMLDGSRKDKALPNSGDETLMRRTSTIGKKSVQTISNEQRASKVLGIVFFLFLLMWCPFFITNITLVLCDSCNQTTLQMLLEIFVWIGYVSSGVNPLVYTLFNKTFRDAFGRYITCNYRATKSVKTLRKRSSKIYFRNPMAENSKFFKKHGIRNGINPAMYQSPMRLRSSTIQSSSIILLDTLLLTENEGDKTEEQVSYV
T4 sequence (P28222 whole entry): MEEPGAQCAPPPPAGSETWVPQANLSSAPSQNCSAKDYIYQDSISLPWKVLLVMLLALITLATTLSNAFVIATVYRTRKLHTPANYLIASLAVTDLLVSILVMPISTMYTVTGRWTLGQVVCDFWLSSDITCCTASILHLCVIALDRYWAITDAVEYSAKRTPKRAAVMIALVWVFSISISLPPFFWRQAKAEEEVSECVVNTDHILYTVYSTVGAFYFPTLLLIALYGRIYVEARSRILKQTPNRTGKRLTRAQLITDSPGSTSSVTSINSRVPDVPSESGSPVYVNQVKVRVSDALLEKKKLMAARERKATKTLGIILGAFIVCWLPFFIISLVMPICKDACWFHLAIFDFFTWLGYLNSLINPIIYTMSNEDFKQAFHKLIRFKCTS
T13 sequence (P34969 whole entry): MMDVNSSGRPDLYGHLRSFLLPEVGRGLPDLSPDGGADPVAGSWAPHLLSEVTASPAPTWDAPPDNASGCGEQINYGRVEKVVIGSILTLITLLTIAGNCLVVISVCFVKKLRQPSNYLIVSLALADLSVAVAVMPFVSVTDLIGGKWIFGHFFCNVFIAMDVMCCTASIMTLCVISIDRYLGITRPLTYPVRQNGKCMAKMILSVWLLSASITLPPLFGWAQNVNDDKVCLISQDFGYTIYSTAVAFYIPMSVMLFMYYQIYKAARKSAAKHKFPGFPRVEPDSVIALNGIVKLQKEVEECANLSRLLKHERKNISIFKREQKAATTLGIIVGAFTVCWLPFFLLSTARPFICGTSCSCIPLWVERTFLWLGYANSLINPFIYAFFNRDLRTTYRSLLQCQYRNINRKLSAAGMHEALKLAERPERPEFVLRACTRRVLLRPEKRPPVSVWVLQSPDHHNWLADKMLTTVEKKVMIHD
Chain of 5-HT2A receptor (P28223 whole entry): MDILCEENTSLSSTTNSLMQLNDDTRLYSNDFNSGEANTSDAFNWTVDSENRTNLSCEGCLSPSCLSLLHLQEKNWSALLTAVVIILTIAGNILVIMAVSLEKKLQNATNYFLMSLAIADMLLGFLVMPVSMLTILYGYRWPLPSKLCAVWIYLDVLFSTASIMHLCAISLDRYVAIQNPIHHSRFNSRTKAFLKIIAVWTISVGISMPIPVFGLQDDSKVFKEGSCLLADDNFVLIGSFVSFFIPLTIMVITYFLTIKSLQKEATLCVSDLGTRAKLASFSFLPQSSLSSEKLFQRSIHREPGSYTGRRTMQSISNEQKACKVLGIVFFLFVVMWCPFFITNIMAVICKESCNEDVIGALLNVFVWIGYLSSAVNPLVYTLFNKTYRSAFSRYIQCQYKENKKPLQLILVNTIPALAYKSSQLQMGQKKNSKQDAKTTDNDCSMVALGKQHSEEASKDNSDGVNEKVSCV

Compound | 5-HT1A receptor engagement (change in cAMP levels), in words (5-HT1A receptor [1]) | HT1D, percent of control-specific binding (5-HT1D (r)) | MT1, percent of control-specific binding (MT1 (ML1A) (h)) | HT1B, percent of control-specific binding (5-HT1B (h)) | NET, percent of control-specific binding (NET (h)) | inhibition at 10 µM (alpha2A (h)) | D3, percent of control-specific binding (D3 (h)) | D2, percent of control-specific binding (D2 (h)) | DAT, percent of control-specific binding (DAT (h)) | HT2B, percent of control-specific binding (5-HT2B (h)) | HT2C, percent of control-specific binding (5-HT2C (h)) | Ki [2] | SERT binding, binding curve in words [2] | Ki (5-HT1A receptor [3]; [4]) | Ki (5-HT2A receptor) | HT7, percent of control-specific binding (5-HT7 (h)) | Ki (5-HT1A receptor [3])
CN(C)CCc1c[nH]c2cccc(O)c12 [psilocin] | reduction in cAMP levels | – | – | – | – | – | – | – | – | – | – | – | – | – | – | – | –
NCCc1c[nH]c2ccc(O)cc12 [serotonin, reference compound] | reduction in cAMP levels | 101% | 7% | 97% | −3% | 18% | 73% | 15% | 8% | – | – | – | – | – | – | – | –
COc1cc(CCN)cc(OC)c1OC [mescaline, 3,4,5 trimethoxyphenethylamine] | no | 70% | 6% | 11% | −9% | 57% | −13% | 3% | −1% | 80% | 95% | 406 µM | SERT binding at higher ligand concentrations | – | – | – | –
N#CC(Cc1ccc2c(c1)OCO2)NC1CCC1 (stereo not drawn) [A(XX)] | – | 14% | 14% | 0% | 1% | 3% | 0% | 24% | 39% | 53% | 41% | 286 µM | – | 123 µM | 42.1 µM | 26% | –
COc1cc2c(cc1CC(=O)N1CCCC1)OCO2 [A(XXI)] | – | 14% | 7% | 0% | 0% | 0% | 7% | 0% | 29% | 33% | 32% | 847 µM | – | 71.3 µM | 338 µM | 20% | –
CC(Cc1ccc2c(c1)OCO2)N1CC(NC(=O)OC(C)(C)C)C1 (stereo not drawn) [A(IV)] | – | 13% | 3% | 15% | 15% | 75% | 84% | 37% | 20% | 94% | 69% | 49.8 µM | – | 1.6 µM | 15 µM | 79% | –
CC(Cc1ccc2c(c1)OCO2)N1CCC1 (stereo not drawn) [A(II)] | – | 43% | 3% | 17% | 77% | 60% | 56% | 13% | 86% | 84% | 94% | 1.87 µM | – | – | 13 µM | 59% | 0.926 µM
CC(Cc1ccc2c(c1)OCO2)NCc1cc2c(cc1Br)OCO2 (stereo not drawn) [A(VI)] | – | 47% | 20% | 0% | 55% | 74% | 42% | 39% | 79% | 99% | 97% | 0.475 µM | binds SERT | – | 5.3 µM | 67% | 1.52 µM
CC(Cc1ccc2c(c1)OCCO2)NCc1ccc2c(c1)OCCO2 (stereo not drawn) [A(XIII)] | – | 38% | 12% | 11% | 50% | 77% | 54% | 28% | 90% | 85% | 34% | 2.91 µM | – | – | 102 µM | 52% | 1.5 µM
